From ChEMBL document CHEMBL1148870, “Novel inhibitors of VEGF receptors-1 and -2 based on azole-5-carboxamide templates” (Bioorg Med Chem Lett, 2007)

Assays:
[1] = molecular target: Vascular endothelial growth factor receptor 1 (Homo sapiens, UniProt P17948); test: Inhibition of VEGFR1 assessed as inhibition of phosphorylation in presence of 2 uM ATP by HTRF assay; assay type: functional
[2] = molecular target: T1, Vascular endothelial growth factor receptor 2 (Homo sapiens, UniProt P35968); test: Inhibition of VEGFR2 assessed as inhibition of phosphorylation in presence of 2 uM ATP by HTRF assay; assay type: functional
[3] = molecular target: T1, Vascular endothelial growth factor receptor 2; test: Inhibition of VEGFR2 assessed as inhibition of phosphorylation in human 293 cells by cell-based ELISA; assay type: functional, HEK293
[4] = molecular target: Insulin-like growth factor 1 receptor (Homo sapiens) (UniProt P08069); test: Inhibition of IGF1R at 10 uM; parameters: scale not given: the % may be the effect or the level left
[5] = organism: Homo sapiens; test: Inhibition of InR at 10 uM; parameters: scale not given: the % may be the effect or the level left
[6] = molecular target: Fibroblast growth factor receptor 1 (Homo sapiens) (UniProt P11362); test: Inhibition of FGFR1 at 10 uM; parameters: scale not given: the % may be the effect or the level left
[7] = molecular target: Receptor-type tyrosine-protein kinase FLT3 (Homo sapiens) (UniProt P36888); test: Inhibition of Flt3 at 10 uM; parameters: scale not given: the % may be the effect or the level left
[8] = molecular target: Vascular endothelial growth factor receptor 3 (Homo sapiens) (UniProt P35916); test: Inhibition of Flt4 at 10 uM; parameters: scale not given: the % may be the effect or the level left
[9] = molecular target: Epidermal growth factor receptor (Homo sapiens) (UniProt P00533); test: Inhibition of ErbB1 at 10 uM; parameters: scale not given: the % may be the effect or the level left
[10] = molecular target: Receptor tyrosine-protein kinase erbB-2 (Homo sapiens) (UniProt P04626); test: Inhibition of ErbB2/Her2 at 10 uM; parameters: scale not given: the % may be the effect or the level left
[11] = molecular target: Hepatocyte growth factor receptor (Homo sapiens) (UniProt P08581); test: Inhibition of cMet at 10 uM; parameters: scale not given: the % may be the effect or the level left
[12] = organism: Homo sapiens; test: Inhibition of PKA at 10 uM; parameters: scale not given: the % may be the effect or the level left
[13] = molecular target: Glycogen synthase kinase-3 beta (Homo sapiens) (UniProt P49841); test: Inhibition of GSK3-beta at 10 uM; parameters: scale not given: the % may be the effect or the level left
[14] = molecular target: RAC-alpha serine/threonine-protein kinase (Homo sapiens) (UniProt P31749); test: Inhibition of PKB/Akt at 10 uM; parameters: scale not given: the % may be the effect or the level left
[15] = organism: Homo sapiens; test: Inhibition of bcr-Abl at 10 uM; parameters: scale not given: the % may be the effect or the level left
[16] = organism: Homo sapiens; test: Inhibition of Cdk1 at 10 uM; parameters: scale not given: the % may be the effect or the level left
[17] = molecular target: RAF proto-oncogene serine/threonine-protein kinase (Homo sapiens) (UniProt P04049); test: Inhibition of Raf1 at 10 uM; parameters: scale not given: the % may be the effect or the level left
[18] = molecular target: Cyclin-dependent kinase 2 (Homo sapiens) (UniProt P24941); test: Inhibition of Cdk2 at 10 uM; parameters: scale not given: the % may be the effect or the level left

Sequence of RAF proto-oncogene serine/threonine-protein kinase (Homo sapiens) (P04049 whole entry): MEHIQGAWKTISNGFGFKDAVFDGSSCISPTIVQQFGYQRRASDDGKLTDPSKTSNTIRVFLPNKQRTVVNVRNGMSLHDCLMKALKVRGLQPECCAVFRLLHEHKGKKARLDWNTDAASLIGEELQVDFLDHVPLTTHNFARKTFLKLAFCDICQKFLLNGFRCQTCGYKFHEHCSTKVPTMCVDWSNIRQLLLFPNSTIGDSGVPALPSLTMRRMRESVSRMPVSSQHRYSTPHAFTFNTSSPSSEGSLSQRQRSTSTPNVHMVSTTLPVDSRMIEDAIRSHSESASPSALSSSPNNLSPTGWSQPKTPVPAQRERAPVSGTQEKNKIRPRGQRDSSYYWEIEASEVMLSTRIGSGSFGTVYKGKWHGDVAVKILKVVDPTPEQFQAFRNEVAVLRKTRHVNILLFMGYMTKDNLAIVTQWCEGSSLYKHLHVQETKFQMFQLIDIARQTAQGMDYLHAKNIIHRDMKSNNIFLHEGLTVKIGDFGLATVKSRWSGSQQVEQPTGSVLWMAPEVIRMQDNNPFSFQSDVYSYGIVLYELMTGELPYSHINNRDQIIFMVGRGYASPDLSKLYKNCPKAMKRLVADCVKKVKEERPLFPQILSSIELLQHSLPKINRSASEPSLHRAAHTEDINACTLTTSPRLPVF
Sequence of Hepatocyte growth factor receptor (Homo sapiens) (P08581 whole entry): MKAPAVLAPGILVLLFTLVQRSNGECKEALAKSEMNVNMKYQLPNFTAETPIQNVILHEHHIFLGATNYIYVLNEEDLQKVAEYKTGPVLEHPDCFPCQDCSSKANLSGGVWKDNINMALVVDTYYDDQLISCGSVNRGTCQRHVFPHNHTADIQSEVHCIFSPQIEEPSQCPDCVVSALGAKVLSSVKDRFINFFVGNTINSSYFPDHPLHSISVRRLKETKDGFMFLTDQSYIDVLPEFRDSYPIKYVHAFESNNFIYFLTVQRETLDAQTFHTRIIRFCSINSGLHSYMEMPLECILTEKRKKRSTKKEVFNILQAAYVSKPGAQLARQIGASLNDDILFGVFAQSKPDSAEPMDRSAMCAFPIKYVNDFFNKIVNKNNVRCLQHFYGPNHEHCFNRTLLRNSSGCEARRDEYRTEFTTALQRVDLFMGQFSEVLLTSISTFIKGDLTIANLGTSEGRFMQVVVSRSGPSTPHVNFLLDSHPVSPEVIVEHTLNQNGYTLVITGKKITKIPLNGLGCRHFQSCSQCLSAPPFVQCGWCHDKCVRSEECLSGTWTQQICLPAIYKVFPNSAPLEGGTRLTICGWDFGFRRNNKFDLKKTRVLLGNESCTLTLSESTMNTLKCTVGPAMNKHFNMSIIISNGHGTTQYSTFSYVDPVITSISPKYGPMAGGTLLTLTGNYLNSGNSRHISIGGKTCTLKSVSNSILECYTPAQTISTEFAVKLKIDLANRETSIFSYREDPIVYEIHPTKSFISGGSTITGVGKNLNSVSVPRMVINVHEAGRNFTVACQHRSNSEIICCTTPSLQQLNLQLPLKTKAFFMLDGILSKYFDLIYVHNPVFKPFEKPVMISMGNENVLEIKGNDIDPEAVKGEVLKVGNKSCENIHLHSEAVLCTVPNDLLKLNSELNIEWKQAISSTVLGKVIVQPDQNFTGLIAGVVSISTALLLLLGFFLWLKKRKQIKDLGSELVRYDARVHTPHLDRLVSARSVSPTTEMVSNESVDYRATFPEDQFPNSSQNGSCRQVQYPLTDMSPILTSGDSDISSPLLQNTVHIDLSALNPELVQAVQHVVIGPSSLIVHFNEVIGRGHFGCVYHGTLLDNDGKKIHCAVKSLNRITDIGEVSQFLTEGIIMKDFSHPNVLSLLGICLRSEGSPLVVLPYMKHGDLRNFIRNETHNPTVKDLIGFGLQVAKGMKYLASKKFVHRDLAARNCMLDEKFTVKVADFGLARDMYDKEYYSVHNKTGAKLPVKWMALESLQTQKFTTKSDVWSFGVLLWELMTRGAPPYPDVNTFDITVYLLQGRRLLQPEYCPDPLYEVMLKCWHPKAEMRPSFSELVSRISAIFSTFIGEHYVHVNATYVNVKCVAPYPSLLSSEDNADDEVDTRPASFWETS
Sequence of Receptor tyrosine-protein kinase erbB-2 (Homo sapiens) (P04626 whole entry): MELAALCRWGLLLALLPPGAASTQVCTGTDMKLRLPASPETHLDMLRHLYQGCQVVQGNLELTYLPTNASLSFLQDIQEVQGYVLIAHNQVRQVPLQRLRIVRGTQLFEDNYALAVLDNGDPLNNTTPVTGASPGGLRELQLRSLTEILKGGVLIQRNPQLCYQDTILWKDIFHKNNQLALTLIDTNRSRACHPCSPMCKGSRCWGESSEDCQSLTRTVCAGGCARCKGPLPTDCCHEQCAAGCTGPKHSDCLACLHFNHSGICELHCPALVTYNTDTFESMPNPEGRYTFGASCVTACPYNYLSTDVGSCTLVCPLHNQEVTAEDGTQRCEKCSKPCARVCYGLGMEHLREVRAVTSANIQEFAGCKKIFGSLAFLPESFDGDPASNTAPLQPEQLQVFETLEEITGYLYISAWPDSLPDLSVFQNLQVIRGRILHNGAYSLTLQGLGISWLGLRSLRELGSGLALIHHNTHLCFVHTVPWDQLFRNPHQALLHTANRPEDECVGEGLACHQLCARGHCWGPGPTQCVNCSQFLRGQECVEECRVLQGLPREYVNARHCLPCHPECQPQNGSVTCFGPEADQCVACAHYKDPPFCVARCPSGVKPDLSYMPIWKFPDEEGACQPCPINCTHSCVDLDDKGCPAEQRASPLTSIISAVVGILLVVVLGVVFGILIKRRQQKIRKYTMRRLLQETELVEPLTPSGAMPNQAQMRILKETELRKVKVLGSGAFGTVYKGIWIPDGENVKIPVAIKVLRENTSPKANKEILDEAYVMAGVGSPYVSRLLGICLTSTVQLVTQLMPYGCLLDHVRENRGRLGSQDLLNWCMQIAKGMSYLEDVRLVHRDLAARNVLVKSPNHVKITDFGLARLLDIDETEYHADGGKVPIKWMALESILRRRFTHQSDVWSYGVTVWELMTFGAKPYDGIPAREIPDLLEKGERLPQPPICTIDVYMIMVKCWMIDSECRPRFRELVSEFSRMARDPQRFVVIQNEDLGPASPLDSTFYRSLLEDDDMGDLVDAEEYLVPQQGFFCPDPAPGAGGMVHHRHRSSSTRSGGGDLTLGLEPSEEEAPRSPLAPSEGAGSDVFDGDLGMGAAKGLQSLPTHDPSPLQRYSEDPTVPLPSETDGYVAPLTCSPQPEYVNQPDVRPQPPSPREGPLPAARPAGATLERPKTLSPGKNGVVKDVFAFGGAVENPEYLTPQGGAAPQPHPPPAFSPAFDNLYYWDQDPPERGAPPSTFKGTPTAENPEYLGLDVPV
Sequence of Vascular endothelial growth factor receptor 3 (Homo sapiens) (P35916 whole entry): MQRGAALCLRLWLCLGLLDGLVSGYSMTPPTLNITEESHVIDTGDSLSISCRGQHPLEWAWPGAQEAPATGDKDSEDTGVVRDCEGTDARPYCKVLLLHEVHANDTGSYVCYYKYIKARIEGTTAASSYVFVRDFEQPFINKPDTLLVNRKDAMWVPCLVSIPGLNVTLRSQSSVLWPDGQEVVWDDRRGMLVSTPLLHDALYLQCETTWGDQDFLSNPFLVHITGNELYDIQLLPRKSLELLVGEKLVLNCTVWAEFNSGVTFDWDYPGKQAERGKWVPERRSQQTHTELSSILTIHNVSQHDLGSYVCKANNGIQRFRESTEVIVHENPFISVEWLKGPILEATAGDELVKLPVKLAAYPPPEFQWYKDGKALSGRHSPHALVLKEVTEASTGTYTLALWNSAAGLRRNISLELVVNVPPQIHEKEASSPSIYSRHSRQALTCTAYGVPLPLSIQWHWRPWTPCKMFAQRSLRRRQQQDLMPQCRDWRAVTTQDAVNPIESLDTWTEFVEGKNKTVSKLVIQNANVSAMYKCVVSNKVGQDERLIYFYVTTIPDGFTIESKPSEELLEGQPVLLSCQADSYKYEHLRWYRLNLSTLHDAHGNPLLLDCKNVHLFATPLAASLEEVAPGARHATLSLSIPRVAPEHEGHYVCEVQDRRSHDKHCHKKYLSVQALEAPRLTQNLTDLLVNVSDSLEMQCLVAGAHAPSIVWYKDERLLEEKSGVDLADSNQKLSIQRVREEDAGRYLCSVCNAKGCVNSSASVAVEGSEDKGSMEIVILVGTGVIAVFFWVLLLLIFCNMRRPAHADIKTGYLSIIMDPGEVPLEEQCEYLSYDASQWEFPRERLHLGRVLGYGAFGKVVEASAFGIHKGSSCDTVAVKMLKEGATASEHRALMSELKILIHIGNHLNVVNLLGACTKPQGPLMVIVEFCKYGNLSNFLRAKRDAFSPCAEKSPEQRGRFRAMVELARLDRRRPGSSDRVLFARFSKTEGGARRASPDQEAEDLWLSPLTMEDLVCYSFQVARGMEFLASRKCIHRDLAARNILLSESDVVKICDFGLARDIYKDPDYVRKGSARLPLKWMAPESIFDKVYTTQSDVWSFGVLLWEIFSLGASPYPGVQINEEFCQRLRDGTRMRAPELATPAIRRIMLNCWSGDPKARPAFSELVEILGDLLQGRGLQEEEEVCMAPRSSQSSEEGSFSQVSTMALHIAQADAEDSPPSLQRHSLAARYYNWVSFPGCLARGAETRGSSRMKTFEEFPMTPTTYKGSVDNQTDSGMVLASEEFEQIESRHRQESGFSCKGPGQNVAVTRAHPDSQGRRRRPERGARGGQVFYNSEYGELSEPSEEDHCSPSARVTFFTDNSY
Sequence of Glycogen synthase kinase-3 beta (Homo sapiens) (P49841 whole entry, looked up): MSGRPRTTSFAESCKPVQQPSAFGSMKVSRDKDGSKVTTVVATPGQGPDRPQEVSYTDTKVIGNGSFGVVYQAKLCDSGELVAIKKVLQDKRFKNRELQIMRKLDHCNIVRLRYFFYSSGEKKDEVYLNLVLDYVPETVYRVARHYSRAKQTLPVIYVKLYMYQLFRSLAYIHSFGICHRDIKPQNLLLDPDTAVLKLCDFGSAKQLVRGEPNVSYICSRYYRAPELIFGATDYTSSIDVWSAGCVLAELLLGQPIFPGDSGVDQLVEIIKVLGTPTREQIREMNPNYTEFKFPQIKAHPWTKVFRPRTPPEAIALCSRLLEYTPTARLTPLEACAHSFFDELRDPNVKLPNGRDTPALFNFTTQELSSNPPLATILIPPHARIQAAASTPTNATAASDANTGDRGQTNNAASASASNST

Row | IC50 [1] | IC50 [2] | IC50 [3] | Activity [4] | Activity [5] | Activity [6] | Activity [7] | Activity [8] | Activity [9] | Activity [10] | Activity [11] | Activity [12] | Activity [13] | Activity [14] | Activity [15] | Activity [16] | Activity [17] | Activity [18] | SMILES
1 | 0.94 µM | 380 nM | 1320 nM | > 30% | > 30% | > 30% | > 30% | > 30% | < 30% | > 30% | > 30% | > 30% | > 30% | > 30% | > 30% | > 30% | > 30% | > 30% | O=C(Nc1ccc(Cl)cc1)c1nccn1CCc1ccncc1
2 | > 10 µM | > 10000 nM | > 10000 nM | > 30% | > 30% | > 30% | > 30% | > 30% | < 30% | > 30% | > 30% | > 30% | > 30% | > 30% | > 30% | > 30% | > 30% | > 30% | O=C(Nc1ccc(Cl)cc1)c1nc2ccccc2n1CCc1ccncc1
3 | > 10 µM | > 10000 nM | > 10000 nM | > 30% | > 30% | > 30% | > 30% | > 30% | < 30% | > 30% | > 30% | > 30% | > 30% | > 30% | > 30% | > 30% | > 30% | > 30% | O=C(Nc1ccc(Cl)cc1)c1cc2ccccc2n1CCc1ccncc1
4 | > 10 µM | 5150 nM | > 10000 nM | > 30% | > 30% | > 30% | > 30% | > 30% | < 30% | > 30% | > 30% | > 30% | > 30% | > 30% | > 30% | > 30% | > 30% | > 30% | O=C(Nc1ccc2[nH]ncc2c1)c1ccnn1CCc1ccncc1
5 | > 10 µM | > 10000 nM | > 10000 nM | > 30% | > 30% | > 30% | > 30% | > 30% | < 30% | > 30% | > 30% | > 30% | > 30% | > 30% | > 30% | > 30% | > 30% | > 30% | O=C(Nc1ccc(Cl)cc1)c1ccnn1CCc1cnoc1
6 | > 10 µM | > 10000 nM | > 10000 nM | > 30% | > 30% | > 30% | > 30% | > 30% | < 30% | > 30% | > 30% | > 30% | > 30% | > 30% | > 30% | > 30% | > 30% | > 30% | O=C(Nc1ccc(Cl)cc1)c1ccnn1CCc1ccc(F)c(F)c1
7 | > 10 µM | > 10000 nM | > 10000 nM | > 30% | > 30% | > 30% | > 30% | > 30% | < 30% | > 30% | > 30% | > 30% | > 30% | > 30% | > 30% | > 30% | > 30% | > 30% | O=C(Nc1ccc(Cl)cc1)c1ccnn1CCc1cccnc1
8 | 1.08 µM | 850 nM | 2960 nM | > 30% | > 30% | > 30% | > 30% | > 30% | < 30% | > 30% | > 30% | > 30% | > 30% | > 30% | > 30% | > 30% | > 30% | > 30% | O=C(Nc1ccc(C(F)(F)F)cc1)c1nnnn1CCc1ccncc1
9 | 3.88 µM | 2650 nM | 2970 nM | > 30% | > 30% | > 30% | > 30% | > 30% | < 30% | > 30% | > 30% | > 30% | > 30% | > 30% | > 30% | > 30% | > 30% | > 30% | O=C(Nc1ccc(OC(F)(F)F)cc1)c1nnnn1CCc1ccncc1
10 | 0.79 µM | 470 nM | 1660 nM | > 30% | > 30% | > 30% | > 30% | > 30% | < 30% | > 30% | > 30% | > 30% | > 30% | > 30% | > 30% | > 30% | > 30% | > 30% | O=C(Nc1ccc(C(F)(F)F)cc1)c1nccn1CCc1ccncc1
11 | 4.56 µM | 1310 nM | 4950 nM | > 30% | > 30% | > 30% | > 30% | > 30% | < 30% | > 30% | > 30% | > 30% | > 30% | > 30% | > 30% | > 30% | > 30% | > 30% | O=C(Nc1ccc(C(F)(F)F)c(Cl)c1)c1nccn1CCc1ccncc1
12 | 0.89 µM | 640 nM | 2030 nM | > 30% | > 30% | > 30% | > 30% | > 30% | < 30% | > 30% | > 30% | > 30% | > 30% | > 30% | > 30% | > 30% | > 30% | > 30% | O=C(Nc1ccc(Cl)cc1)c1nnnn1CCc1ccncc1
13 | > 10 µM | > 10000 nM | > 10000 nM | > 30% | > 30% | > 30% | > 30% | > 30% | < 30% | > 30% | > 30% | > 30% | > 30% | > 30% | > 30% | > 30% | > 30% | > 30% | O=C(Nc1ccc(C(F)(F)F)c(Cl)c1)c1nnnn1CCc1ccncc1
14 | > 10 µM | > 10000 nM | > 10000 nM | > 30% | > 30% | > 30% | > 30% | > 30% | < 30% | > 30% | > 30% | > 30% | > 30% | > 30% | > 30% | > 30% | > 30% | > 30% | Cc1nn(CCc2ccncc2)c(C(=O)Nc2ccc(OC(F)(F)F)cc2)c1C
15 | 0.45 µM | 370 nM | 280 nM | > 30% | > 30% | > 30% | > 30% | > 30% | < 30% | > 30% | > 30% | > 30% | > 30% | > 30% | > 30% | > 30% | > 30% | > 30% | O=C(Nc1cccc(OC(F)(F)F)c1)c1ccnn1CCc1ccncc1
16 | > 10 µM | > 10000 nM | > 10000 nM | > 30% | > 30% | > 30% | > 30% | > 30% | < 30% | > 30% | > 30% | > 30% | > 30% | > 30% | > 30% | > 30% | > 30% | > 30% | Cc1nn(CCc2ccncc2)c(C(=O)Nc2ccc(Cl)cc2)c1C
17 | > 10 µM | > 10000 nM | – | – | – | – | – | – | – | – | – | – | – | – | – | – | – | – | CN(C(=O)c1ccnn1CCc1ccncc1)c1ccc(Cl)cc1
